Columns and labels:
recombinant YycG′ = molecular target: T1, recombinant YycG′ (Staphylococcus epidermidis, UniProt Q5HK19); test: Inhibition of YycG′ autophosphorylation (Kinase-Glo Luminescent Kinase Assay); type: biochemical, S. epidermidis; conditions: for IC50: autophosphorylation of recombinant YycG′, Kinase-Glo; for inhibition of enzymatic autophosphorylation of YycG′: 100 μM derivative, YycG′ 0.13 μM
T1 construct: made in house; host or cells: E. coli BL21 (DE3)
Description: Recombinant YycG (YycG′, amino acids 370–610) was prepared by expressing the HATPase_c and HisKA domains of YycG in E. coli BL21 (DE3). In brief, the sequence coding for YycG′ was amplified from the genome of S. epidermidis ATCC 35984 by PCR and cloned into the pET28a (+) vector, which inserts a GB1 tag (B1 domain of protein G, 56 residues) to make the recombinant fusion protein highly soluble and stable. The recombinant YycG′ protein was fused to the GB1 tag at its N-terminus end, expressed in E. coli BL21 (DE3) and purified by Ni^2+ affinity chromatography on a Ni-NTA column (Qiagen, Germany). The purified YycG′ was cleaved by TEV protease and further purified by Ni-NTA and Superdex 75 gel filtration columns (GE Healthcare, USA).
The Kinase-Glo™ Luminescent Kinase Assay (Promega, Madison, WI, USA) was used to measure the inhibitory activities of the derivatives against the autophosphorylation activity of the recombinant YycG′ following the manufacturer’s recommendation. The derivatives were serially diluted from 200 to 1.6 μM with reaction buffer (40 mM Tris pH 8.0, 20 mM MgCl2, and 0.1 mg/ml BSA). Recombinant YycG′ (0.02 μg/μl) and diluted derivative were added into a 96-well plate and incubated at 25 °C for 30 min, and then 4 μM ATP was added into each well and incubated for another 30 min. Finally, 50 μl Kinase-Glo™ Reagent containing luciferase (kinase) and D-luciferin was added. The luminescent signal generated by luciferase was in proportion to the amount of ATP remaining in the reaction. Luminescence was detected by a Perkin Elmer Victor X5 luminescence plate reader, and the intensity was recorded as relative light units (RLU). The wells containing ATP and Kinase-Glo™ without YycG′ and derivatives or containing YycG′ plus ATP and Kinase-Glo™ without the derivatives were used as the controls. The percentage inhibition of protein phosphorylation (Rp) by the derivatives was calculated as follows: Rp=RLUYycG^’+derivative+ATP+Kinase-Glo^TM-RLUYycG^’+ATP+Kinase-Glo^TM/RLUATP+Kinase-Glo^TM-RLUYycG^’+ATP+Kinase-Glo^TM×100
The concentration of a derivative required to inhibit half of the autophosphorylation of recombinant YycG′ (half maximal inhibitory concentration, IC50) was calculated with Origin 8.0 software (Origin Lab, Northampton, USA). Three independent assays were carried out, and each was performed in quadruplicate.

[1] = test system: S. epidermidis ATCC 35984 biofilms; test: Microtiter plate assay of S. epidermidis biofilms (crystal violet, MBEC); type: cell-based; conditions: 6-h-old (immature) biofilms
Description: The effects of the derivatives on immature (6-h-old) biofilms and mature (24-h-old) biofilms of S. epidermidis ATCC 35984 were detected by using a semiquantitative microtiter plate assay (Stepanovic et al. [2007]). An overnight culture of bacteria was inoculated 1:200 into TSB medium containing 0.25 % glucose and statically incubated in a polystyrene 96-well plate (200 μl per well) at 37 °C for 6 or 24 h. The medium containing any nonadherent bacteria was then removed, and serial dilutions of derivatives in 200 μl fresh TSB were added to the wells and incubated for another 16 h at 37 °C. The wells were then washed gently three times with phosphate buffered saline (PBS), air-dried, fixed with methanol, and stained with 2 % (w/v) crystal violet. The staining was visually assessed and scanned at 570 nm using a 96-well plate spectrophotometer (DTX880, Beckman Coulter, USA), and the minimal biofilm eradication concentration (MBEC) was measured (Ceri et al. [1999]).

[2] = test system: mature (24-h-old) biofilms of S. epidermidis ATCC 35984; test: Bacterial viability in mature biofilms by CLSM with Live/Dead staining; type: cell-based; conditions: 4 × MIC, 16 h, SYTO9/PI
Description: A diluted overnight culture of the bacteria was inoculated into cell culture glass bottom dishes (WPI, USA) and incubated at 37 °C for 24 h. […] The biofilms were washed with PBS and stained with SYTO9 and propidium iodide (PI), both of which were used at a concentration of 1 μM. SYTO9-stained live cells and PI-stained cells dead in biofilms were visualized by a Leica TCS SP5 confocal laser scanning microscope with a ×63 1.4-NA oil immersion objective. Three-dimensional biofilm images were created by IMARIS 7.0.0 software (Bitplane).

[3] = test system: S. epidermidis ATCC 35984; test: Derivatives combined with vancomycin or cefazolin (FIC index); type: cell-based; conditions: for MIC: Staphylococcus epidermidis, ATCC35984, line paired with vancomycin, read-out: MIC Derivative alone; for MIC Derivative alone: line paired with cefazolin
Source text: Combination antimicrobial therapy is widely used to take advantage of different mechanisms of action. It may potentiate the effect of individual antimicrobial agents by synergic action (Bijnsdorp et al. [2011]; Cokol et al. [2011]). The glycopeptide antibiotics, such as vancomycin, can bind the peptidoglycan side chains in the cell wall and prevent cross-linking during cell wall synthesis. Vancomycin has been considered to be one of the most reliable therapeutic agents against staphylococcal infections, but it is unable to clear biofilms even at high concentration (128 mg/l) (Climo et al. [1999]; Darouiche et al. [1994]; Tenover et al. [2001]). […] YycGF also plays an important role in the synthesis of peptidoglycan in B. subtilis and S. aureus (Bisicchia et al. [2007]; Dubrac and Msadek [2004]). In a preliminary study, we assessed the effects of the combined application of the derivatives with vancomycin and cefazolin against S. epidermidis ATCC 35984 according to the method of Odds ([2003]) (Cottagnoud et al. [2003]). […] No antagonism was observed between the derivatives and vancomycin or cefazolin (Table S1).
17 Table S1. The derivatives combined with vancomycin or cefazolin against S. epidermidis
Derivatives Antibiotics MIC (mg/L) FICIa Synergyb
Derivative Antibiotic In combination
alone alone (Derivative/Antibiotic)
19 a The FICI was calculated as FIC indexes= (MICderivative A in combination/MICderivative A
20 alone)+(MICantibiotic B in combination/MIC antibiotic B alone).
21 b The interaction between the two antibacterials is noted as follows: FIC index≤0.5,
22 Synergy (+); 0.5<FIC index≤4 (-), No interaction; FIC≥4.0, Antagonism.

[4] = cefazolin combined with the labelled derivative
[5] = derivative combined with cefazolin
[6] = derivative combined with vancomycin
[7] = vancomycin combined with the labelled derivative

T1 sequence (Q5HK19 370-610): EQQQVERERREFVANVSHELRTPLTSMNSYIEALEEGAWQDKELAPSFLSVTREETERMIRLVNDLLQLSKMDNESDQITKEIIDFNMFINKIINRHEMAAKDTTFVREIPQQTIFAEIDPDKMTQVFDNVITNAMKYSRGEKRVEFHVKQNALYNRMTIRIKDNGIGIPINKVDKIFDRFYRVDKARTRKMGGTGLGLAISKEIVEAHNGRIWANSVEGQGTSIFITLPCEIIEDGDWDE

| SMILES | IC50 (recombinant YycG′) [µM] | MBEC [1] [µM] | inhibition of enzymatic autophosphorylation of YycG′ (recombinant YycG′) [%] | proportion of viable cells in mature biofilms [2] [%] | MIC [3] [µg/mL] | MIC In combination: antibiotic [3, 4] [µg/mL] | FICI ([3]; derivative + cefazolin) | FICI ([3]; derivative + vancomycin) | MIC In combination: derivative [3, 5] [µg/mL] | MIC In combination: derivative [3, 6] [µg/mL] | MIC Derivative alone [3] [µg/mL] | MIC In combination: antibiotic [3, 7] [µg/mL] | interaction with vancomycin or cefazolin (in words) ([3]; S. epidermidis ATCC 35984, preliminary study) |
| --- | --- | --- | --- | --- | --- | --- | --- | --- | --- | --- | --- | --- | --- |
| CCc1ccccc1/N=C1\S/C(=C\c2ccc(OCC(=O)O)c(OC)c2)C(=O)N1c1ccccc1CC [Compound 2, {2-{4-{3-(2-ethylphenyl)-2-[(2-ethylphenyl)imino]-4-oxothiazolidin-5-ylidene}methyl}-2-methoxyphenoxy}acetic acid] | 47.9 ± 5.3 | 100.0 | – | – | – | – | – | – | – | – | – | – | – |
| O=C(O)c1cccc(-c2ccc(C=C3SC(=Nc4ccc(Cl)cc4)N(c4ccc(Cl)cc4)C3=O)o2)c1 [H2-38, 3-{5-{{3-(4-chlorophenyl)-2-[(4-chlorophenyl)imino]-4-oxothiazolidin-5-ylidene}methyl}furan-2-yl}benzoic acid] | 41.4 ± 3.4 | 12.5 | 61.8 | 42.3 | 0.8 | 0.5 | 0.56 | 0.63 | 0.4 | 0.4 | 0.8 | 0.5 | – |
| O=C(O)c1ccc(-c2ccc(C=C3SC(=Nc4ccc(Cl)cc4)N(c4ccc(Cl)cc4)C3=O)o2)cc1 [H2-39, 4-{5-{{3-(4-chlorophenyl)-2-[(4-chlorophenyl)imino]-4-oxothiazolidin-5-ylidene}methyl}furan-2-yl}benzoic acid] | 59.8 ± 1.4 | 12.5 | 56.3 | 55.6 | 0.8 | 0.25 | 0.53 | 1.13 | 0.4 | 0.8 | 0.8 | 0.5 | – |
| O=C(O)c1ccc(-c2ccc(/C=C3\S/C(=N\c4ccccc4)N(c4ccc(Cl)cc4)C3=O)o2)cc1 [H2-57, 4-{5-{{3-(4-chlorophenyl)-2-[(4-phenyl)imino]-4-oxothiazolidin-5-ylidene}methyl}furan-2-yl}benzoic acid] | 47.1 ± 1.5 | 12.5 | 59.7 | 17.1 | 1.7 | 0.25 | 0.53 | 1.13 | 0.85 | – | – | 0.5 | – |
| O=C(O)c1ccc(-c2ccc(C=C3SC(=Nc4ccc(F)cc4)N(c4ccc(F)cc4)C3=O)s2)cc1 [H2-60, 4-{5-{{3-(4-fluorophenyl)-2-[(4-fluorophenyl)imino]-4-oxothiazolidin-5-ylidene}methyl}thiophene-2-yl}benzoic acid] | 63.7 ± 2.3 | 12.5 | 55.4 | 14 | 1.7 | 0.25 | 0.53 | 0.56 | 0.85 | 0.85 | – | 0.25 | – |
| O=C(O)COc1ccc(C=C2SC(=Nc3ccc(Cl)cc3)N(c3ccc(Cl)cc3)C2=O)cc1 [H2-74, 2-{4-{[3-(4-chlorophenyl)-2-[(4-chlorophenyl)imino]-4-oxothiazolidin-5-ylidene}methyl}phenoxy}acetic acid] | 71.2 ± 4.9 | 50.0 | 53.9 | 32.5 | 0.8 | 1 | 0.63 | 0.38 | 0.4 | 0.2 | 0.8 | 0.5 | – |
| O=C(O)c1ccc(-c2ccc(/C=C3\S/C(=N\c4ccccc4)N(c4ccc(F)cc4)C3=O)s2)cc1 [H2-81, 4-{5-{{3-(4-fluorophenyl)-2-[(4-phenyl)imino]-4-oxothiazolidin-5-ylidene}methyl}thiophene-2-yl}benzoic acid] | 24.2 ± 1.2 | 6.3 | 79.2 | 12.3 | 0.7 | 1 | 0.38 | 0.5 | 0.18 | 0.18 | 0.7 | 1 | synergistic effect |

From article PMC4057637, “Efficacy of novel antibacterial compounds targeting histidine kinase YycG protein” (Applied Microbiology and Biotechnology, 2014)
